Assay results taken from US20240115672A1, “TREATMENT OF AN IOP CONDITION” (THE RESEARCH FOUNDATION FOR THE STATE UNIVERSITY OF NEW YORK, priority 2021, published 2024).

Columns and labels:
[1] = tested on: sheep of the Coriedale breed; assay: IOP in prednisolone-treated sheep after tPA injection into the anterior chamber (Example 9); assay type: in vivo; conditions: 0.0001 μg into the AC; IOP 23.0 mm Hg at 6:00 and 30:00 hrs after injection
Experimental: Methods. Lyophilized IPA, obtained as Acetilyse® from Boehringer Ingelheim S.A. (Buenos Aires) containing arginine. was used. Five sheep of the Coriedale breed were selected. Initially all eyes received instillation of 1% prednisolone 3 times/day for 10 days to elevate their IOP from 10 mm Hg to about 23 mm Hg. Then, 0.0001 μg was injected into one of the eyes and its effect was followed for up to 55:00 hrs while the instillation of prednisolone continued in both eyes. The same protocol was implemented for the 0.001 and 0.01 μg amounts (after extended washout) in the contra lateral eyes. Arginine, which is associated with 0.01 ug tPA, was injected alone and had no effect.

[2] = tested on: MMP-1, MMP-2, MMP-9, MMP-13, PLAT, PAI-1 mRNA; assay: qRT-PCR gene expression in sheep TM and ciliary processes after tPA; assay type: in vivo
From the text: Methods. Tissue Collection and Isolation of RNA. After animals were euthanized, eyes were immediately enucleated. Eyes were then opened anterior to the equator using a razor blade. The lens was removed from the anterior part, and the tissue was immersed in RNA stabilizing agent (RNAlater; Ambion, Carlsbad, CA) and placed at […] for transportation to the United States. Upon arrival in the United States, TM and ciliary processes (CP) were dissected on ice in the presence of RNA stabilizing agent as described previously. Dissected tissue was homogenized, and total RNA was extracted using TRIzol reagent (Gibco. Carlsbad, CA). Briefly, the tissue was homogenized in TRIzol, and chloroform was added to separate proteins from RNA. After centrifugation, the RNA-containing supernatant was aspirated. The RNA was precipitated with isopropanol, washed with 75% ethanol, treated with DNase, and column purified using a commercial kit (RNAeasy Mini Kit; Qiagen, Valencia, CA) in accordance with the manufacturer's instructions. RNA concentrations were determined with a spectrophotometer (Nanodrop; Thermo Scientific, Wilmington, DE) and the 260:280-nm absorbance ratio was calculated to determine RNA purity.
Quantitative Real-Time PCR (qRT-PCR) The RNA samples were reverse transcribed with random hexamers to cDNA using a reverse transcription kit (Quantitect; Qiagen) in accordance with the manufacturer's instructions. Quantitative RT-PCR was performed using a commercial kit (SYBR Green RT-PCR Reagents Kit; Applied Biosystems, Carlsbad, CA) in an ABI PRISM 7900HT sequence detector (Applied Biosystems). The sheep endogenous mRNA expression of matrix metalloproteinase-1 (MMP-1), matrix metalloproteinase-2 (MMP-2), matrix metalloproteinase-9 (MMP-9), matrix metalloproteinase-13 (MMP-13). and plasminogen activator tissue (PLAT) in the TM were investigated. Plasminogen activator inhibitor 1 (PA1-1) mRNA expression was measured in both TM and ciliary processes tissues. Relative quantification of gene expression was performed using the standard curve method. Mean threshold cycle (Ct) of the samples was compared among the groups by using the Ct. of 18S as an internal control. The DCt was calculated as the difference in Ct values derived from the target gene and the 18S gene. The DDCt was calculated as DCt of the normalized assayed genes in the treated samples minus DCt of normalized assayed genes in the naive control samples. Relative expression was calculated by the 2exp DD Ct formula.

[3] = tested on: Mmp-2, Mmp-9, Mmp-13 mRNA in angle ring tissues; assay: Mmp expression in TA and protein treated C57BL/6J eyes (Example 13); assay type: in vivo, mouse; conditions: TA + protein; compared to BSA treated controls; p<0.0001
Mmp-9KO mice = assay: Outflow facility in protein treated Mmp-9KO mouse eyes (Example 16); assay type: in vivo; conditions: Mmp-9KO eyes, intravitreal; p>0.05 ANOVA
From the text: Animals: 8- to 12-week-old female mice were used for this study. The animals were housed and bred at the State University of New York (SUNY) Downstate Health Sciences University Division of Comparative Medicine (Brooklyn. NY) under a 12-hour light/12-hour dark cycle and food ad libitum. C57BL/6J mice were obtained from The Jackson Laboratories (Bar Harbor, ME, USA). A PlatKO mouse colony was established from animals (stock No. 002508) obtained from The Jackson Laboratories. These animals are on a C57BL/61 background (www.jax.org/strain/002508). AnMmp-9KO mouse colony was established from animals (stock No. 007084) obtained from The Jackson Laboratories. These animals are on a mixed background but have been bred into the C57BL/6J background for five generations (www.jax.org/strain/007084). […]
Outflow facility determination: Mouse eyes were enucleated immediately after euthanasia. Outflow facility was determined using a constant pressure method, as previously described. […] Flow was constantly measured via a microfluidic flow sensor (0.07-1.5 uL/min, MFS1; Elveflow, Paris, France). […] Any eyes that developed visible leaks during outflow facility determination, or that had pressure-flow correlations with R^2<0.9, were excluded from analysis but were used for RNA quantification.

tPA: recombinant human tissue plasminogen activator (ACTILYSE; Boehringer Ingelheim), enzymatically active
effect on IOP [1]: no effect | MMP1 expression ([2]; sheep, after tPA): up-regulates | MMP2 expression ([2]; sheep, after tPA): up-regulates | MMP9 expression ([2]; sheep, after tPA): up-regulates | MMP13 expression ([2]; sheep, after tPA): up-regulates | PAI-1 expression ([2]; trabecular meshwork (TM) and ciliary processes): up-regulating | Mmp-2 expression [3]: significant upregulation | effect on outflow facility (Mmp-9KO mice): did not increase outflow facility
